# Data: publication PMC9124820, “In vitro evaluation of fenfluramine and norfenfluramine as victims of drug interactions” (Pharmacology Research & Perspectives, 2022)
# What was measured:
# BCRP = target: T1, BCRP (Homo sapiens, UniProt Q9UNQ0); test: Transporter substrate determination, bi-directional permeability in MDCKII-BCRP cells; type: in vitro ADME; set-up: host or cells: MDCKII; details: for substrate of the transporter: BCRP; for Maximum Ratio (net flux in transporter‐expressing cells to control cells): MDCKII‐BCRP, 0.1, 1, 10 µM, threshold ≥2‐fold suggests substrate
# T1 sequence (Q9UNQ0 1-655): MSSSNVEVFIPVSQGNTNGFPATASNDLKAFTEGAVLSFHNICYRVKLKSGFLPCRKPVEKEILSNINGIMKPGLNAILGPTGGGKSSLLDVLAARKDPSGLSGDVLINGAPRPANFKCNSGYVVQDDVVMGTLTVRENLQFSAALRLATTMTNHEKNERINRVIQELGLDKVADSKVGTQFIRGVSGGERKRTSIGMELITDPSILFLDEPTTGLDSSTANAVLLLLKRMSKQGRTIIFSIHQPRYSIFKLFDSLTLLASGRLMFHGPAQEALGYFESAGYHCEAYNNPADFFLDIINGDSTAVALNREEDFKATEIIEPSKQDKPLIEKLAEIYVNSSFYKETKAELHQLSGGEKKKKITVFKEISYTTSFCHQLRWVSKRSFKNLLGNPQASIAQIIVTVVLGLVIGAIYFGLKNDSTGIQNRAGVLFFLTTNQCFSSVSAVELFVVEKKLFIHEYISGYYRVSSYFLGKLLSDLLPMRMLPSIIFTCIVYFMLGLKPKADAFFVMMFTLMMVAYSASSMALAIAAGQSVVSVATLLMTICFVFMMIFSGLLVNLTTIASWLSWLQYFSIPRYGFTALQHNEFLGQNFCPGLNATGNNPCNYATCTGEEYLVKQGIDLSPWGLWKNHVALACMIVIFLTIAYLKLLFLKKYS
# Method: (§1) LC‐MS/MS analyses to assess metabolic stability and identify the transporter substrate were performed using an API 4000 QTRAP mass spectrometer (SCIEX, Framingham, MA) with electrospray ionization in positive mode. Chromatography was performed using an Atlantis dC18 analytical column (100 × 2.1 mm, 5 µm; Waters Corporation, Milford, MA). Mobile phases were 0.2% v/v formic acid in water and 0.2% v/v formic acid in acetonitrile. For metabolic stability experiments, FFA and metabolites were eluted at a flow rate of 0.6 mL/min, with a linear gradient of 20%−80% acetonitrile from 0.30−2.0 min. For transporter substrate experiments, the gradient was slightly modified to achieve suitable chromatography. The mass transitions monitored were 232.0 > 159.0 for FFA and 348.0 > 330.0 for 1ʹ‐OH‐midazolam‐d4 internal standard.
# (§2) FFA and nFFA were evaluated as substrates of the transporters breast cancer resistance protein (BCRP), organic anion transporter (OAT)1, OAT3, organic cation transporter (OCT)2, MATE1, MATE2‐K, and P‐glycoprotein multidrug transporter (P‐gp; also known as MDR1 and ABCB1), according to published methods.[25], [26], [27], [28], [29] Madin‐Darby canine kidney (MDCKII)‐BCRP cells (Netherlands Cancer Institute, Amsterdam, Netherlands) or human embryonic kidney (HEK)293 cells transfected with other transporters (Sekisui Medical Co., Ltd., Tokyo, Japan) were used. Transporter‐transfected and control cells were incubated with FFA or nFFA (0.1, 1, or 10 μM), and the amount of FFA and nFFA accumulated in the cells was measured by LC‐MS/MS as described above. The accumulation of positive control substrates in the presence and absence of an inhibitor served as a positive control for transporter function. […] BCRP substrate determination was made by bi‐directional permeability across MDCKII‐BCRP and control cells cultured on 24‐well transwell plates. Incubation medium containing probe substrate was added. Ten minutes later, transepithelial electrical resistance (TEER) was recorded and cells were preincubated at 37 ± 2°C for 30−60 min before FFA or nFFA or positive control substrate with the solvent control or positive control inhibitor was added to the donor (apical) chamber. […] Samples containing FFA, nFFA, or probe substrate were mixed with internal standard and analyzed by LC‐MS/MS. […] An aliquot was added to 96‐well plate containing scintillation fluid that was analyzed by a MicroBeta^2 scintillation counter (Perkin Elmer, Waltham, MA). Protein concentration was determined by a bicinchoninic acid (BCA) protein assay according to the manufacturer’s protocol (Thermo Fisher Scientific, Waltham, MA). Non‐radiolabeled compounds were resuspended in a 50:50 v/v methanol:water solution containing internal standard and were analyzed by LC‐MS/MS. […]
# MATE2‐K = target: T2, MATE2‐K (Homo sapiens, UniProt Q86VL8); test: Transporter substrate determination, uptake in HEK293-MATE2K cells; type: in vitro ADME; details: for Maximum Ratio (uptake in transporter‐expressing cells to empty‐vector control cells): HEK293‐MATE2K, 0.1, 1, 10 µM, threshold ≥2‐fold; for substrate of the transporter: MATE2‐K
# T2 construct: host or cells: HEK293
# Method: as §1, §2
# [1] = clobazam, and valproate, healthy subjects, cited from earlier work
# OCT2 = target: T3, OCT2 (Homo sapiens, UniProt O15244); test: Transporter substrate determination, uptake in HEK293-OCT2 cells; type: in vitro ADME; details: for Maximum Ratio (uptake in transporter‐expressing cells to empty‐vector control cells): HEK293‐OCT2, 0.1, 1, 10 µM, threshold ≥2‐fold; for substrate of the transporter: OCT2
# T3 construct: host or cells: HEK293
# T3 sequence (O15244 1-555): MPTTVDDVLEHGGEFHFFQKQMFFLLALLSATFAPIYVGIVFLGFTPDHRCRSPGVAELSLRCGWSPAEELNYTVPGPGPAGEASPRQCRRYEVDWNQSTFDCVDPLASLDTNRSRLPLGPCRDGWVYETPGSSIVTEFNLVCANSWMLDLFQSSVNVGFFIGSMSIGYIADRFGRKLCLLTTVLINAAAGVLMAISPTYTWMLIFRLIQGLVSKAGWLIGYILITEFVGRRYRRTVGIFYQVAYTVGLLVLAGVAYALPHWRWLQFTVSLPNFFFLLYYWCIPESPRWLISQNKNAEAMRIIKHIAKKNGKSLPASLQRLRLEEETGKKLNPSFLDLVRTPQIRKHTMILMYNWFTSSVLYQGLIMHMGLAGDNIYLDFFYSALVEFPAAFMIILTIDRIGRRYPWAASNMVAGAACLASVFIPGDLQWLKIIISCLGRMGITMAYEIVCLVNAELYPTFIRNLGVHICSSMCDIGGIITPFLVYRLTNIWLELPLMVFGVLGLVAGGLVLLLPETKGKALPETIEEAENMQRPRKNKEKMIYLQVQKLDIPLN
# Method: as §1, §2
# T2 sequence (Q86VL8 1-566 isoform Q86VL8-3): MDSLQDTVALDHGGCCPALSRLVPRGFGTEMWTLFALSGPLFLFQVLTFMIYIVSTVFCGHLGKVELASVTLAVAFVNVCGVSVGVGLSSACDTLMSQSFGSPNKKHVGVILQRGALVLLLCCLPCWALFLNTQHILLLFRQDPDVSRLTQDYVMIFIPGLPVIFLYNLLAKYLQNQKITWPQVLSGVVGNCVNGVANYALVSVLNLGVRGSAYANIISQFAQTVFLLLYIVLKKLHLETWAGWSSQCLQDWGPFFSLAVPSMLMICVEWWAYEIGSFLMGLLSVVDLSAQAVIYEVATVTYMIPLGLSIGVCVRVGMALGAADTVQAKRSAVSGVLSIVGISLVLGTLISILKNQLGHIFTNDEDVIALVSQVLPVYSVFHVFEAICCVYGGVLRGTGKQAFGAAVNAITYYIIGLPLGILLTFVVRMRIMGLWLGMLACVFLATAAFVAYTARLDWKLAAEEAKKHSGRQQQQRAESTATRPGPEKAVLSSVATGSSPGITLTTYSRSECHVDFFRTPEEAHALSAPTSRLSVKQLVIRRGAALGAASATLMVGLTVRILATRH
compound,measurement,setting,value
"CCNC(C)Cc1cccc(C(F)(F)F)c1 (racemic) [FFA, (RS)‐ethyl (α‐methyl‐3‐trifluoromethylphenethyl)amine]",substrate of the transporter,BCRP,not substrates
same,Maximum Ratio (net flux in transporter‐expressing cells to control cells),BCRP,1.51
same,Maximum Ratio (uptake in transporter‐expressing cells to empty‐vector control cells),MATE2‐K,1.40
same,substrate of the transporter,MATE2‐K,not substrates
same,"effect on Cmax, AUC0‐t, and AUC0‐∞ of FFA",[1]; co‐administered with stiripentol,increasing
same,Maximum Ratio (uptake in transporter‐expressing cells to empty‐vector control cells),OCT2,1.09
same,substrate of the transporter,OCT2,not substrates
"CC(N)Cc1cccc(C(F)(F)F)c1.Cl (centres unmarked) [nFFA, 1‐(3‐(trifluoromethyl)phenyl)propan‐2‐amine hydrochloride]",substrate of the transporter,BCRP,not substrates
same,Maximum Ratio (net flux in transporter‐expressing cells to control cells),BCRP,1.42
same,Maximum Ratio (uptake in transporter‐expressing cells to empty‐vector control cells),MATE2‐K,1.50
same,substrate of the transporter,MATE2‐K,not substrates
same,effect on Cmax and AUC0‐t of nFFA,[1]; FFA co‐administered with stiripentol,reduced
same,Maximum Ratio (uptake in transporter‐expressing cells to empty‐vector control cells),OCT2,1.16
same,substrate of the transporter,OCT2,not substrates
